Results reported in patent US20060009358A1, “Synergistically acting herbicidal mixtures” (priority 2002, published 2006).

Columns and labels:
Experiment in all cases: Herbicidal action, post-emergence treatment, greenhouse (damage 0-100% vs untreated control)
Type in all cases: in vivo
Setaria faberi = tested on: Setaria faberi
Excerpt: (§1) The mixtures according to the invention were applied pre- or post-emergence (foliar treatment). The herbicidal compounds of component B and, if desired, of component C were applied in the formulation in which they are present as commercially available product.
(§2) The herbicidally active compounds of components A), B) and, if desired, C) were applied in succession or jointly, in the latter case in some cases as a tank mix and in some cases as a ready-mix, in the form of emulsions, aqueous solutions or-suspensions, the vehicle being water (300-400 l/ha). In the case of the field trials, application was effected with the aid of a mobile plot sprayer.
(§3) The test period extended over 3 to 8 weeks, and the stands were also observed at later points in time.
(§4) Damage by the herbicidal compositions was evaluated with reference to a scale of 0% to 100% in comparison with untreated control plots. 0 means no damage and 100 means complete destruction of the plants.
(§5) In these examples, the value E at which only an additive effect of the individual active ingredients is to be expected was calculated by the method of S. R. Colby (Calculating synergistic and antagonistic responses of herbicide combinations, Weeds 15, 20 pp (1967)).
(§6) This was done using the formula [formula] where • X=Percentage of the herbicidal action of component X) at an application rate of x; • Y=Percentage of the herbicidal action of component Y) at an application rate of y; • E=expected herbicidal action of component X)+Y) at rates of application x+y (in %).
(§7) If the value observed exceeds the value E calculated in accordance with Colby's formula, then synergism is present.

Abutilon theophrasti = tested on: Abutilon theophrasti
Excerpt: as §1, §2, §3, §4, §5, §6, §7

Galium aparine = tested on: Galium aparine
Excerpt: as §1, §2, §3, §4, §5, §6, §7

Pharbitis purpurea = details: Table 11, application rate 31.2 g/ha ai
Excerpt: as §1, §2, §3, §4, §5, §6, §7

Brachiaria plantaginea = details: Table 8, application rate 125 g/ha ai
Excerpt: as §1, §2, §3, §4, §5, §6, §7

Polygonum persicaria = tested on: Polygonum persicaria
Excerpt: as §1, §2, §3, §4, §5, §6, §7

Echinochloa crus-galli = details: Table 5, application rate 3.91 g/ha ai
Excerpt: as §1, §2, §3, §4, §5, §6, §7

[1] = Table 3, application rate 3.91 g/ha ai
[2] = Table 4, application rate 7.81 g/ha ai

SMILES: O=C(O)c1nc(Cl)ccc1Cl [IIb, clopyralid]
- Setaria faberi Damage (Setaria faberi; Table 6, application rate 250 g/ha ai): 20%
- Setaria faberi Damage (Setaria faberi; Table 7, application rate 125 g/ha ai): 20%

SMILES: Cc1c(C(=O)c2cnn(C)c2O)ccc(S(C)(=O)=O)c1C1=NOCC1 [Ia.29, 4-[2-methyl-3-(4,5-dihydroisoxazol-3-yl)-4-methylsulfonyl-benzoyl]-1-methyl-5-hydroxy-1H-pyrazole]
- Abutilon theophrasti Damage (Abutilon theophrasti; [1]): 60%
- Galium aparine Damage (Galium aparine; [2]): 70%

SMILES: CCNc1nc(Cl)nc(NC(C)C)n1 [atrazine]
- Pharbitis purpurea Damage (Pharbitis purpurea): 60%
- Brachiaria plantaginea Damage (Brachiaria plantaginea): 25%
- Abutilon theophrasti Damage (Abutilon theophrasti; Table 8, application rate 125 g/ha ai): 30%
- Polygonum persicaria Damage (Polygonum persicaria; Table 10, application rate 62.5 g/ha ai): 40%
- Polygonum persicaria Damage (Polygonum persicaria; Table 12, application rate 31.2 g/ha ai): 30%
- Galium aparine Damage (Galium aparine; Table 9, application rate 125 g/ha ai): 60%
- Setaria faberi Damage (Setaria faberi; Table 11, application rate 31.2 g/ha ai): 30%

SMILES: Cc1ccn2nc(S(=O)(=O)Nc3c(F)cccc3F)nc2n1 [IIa, flumetsulam]
- Abutilon theophrasti Damage (Abutilon theophrasti; [1]): 60%
- Echinochloa crus-galli Damage (Echinochloa crus-galli): 25%
- Galium aparine Damage (Galium aparine; [2]): 80%
